One experiment deals with T1, STEP (Homo sapiens, UniProt P54829).
T1 sequence (P54829 1-565): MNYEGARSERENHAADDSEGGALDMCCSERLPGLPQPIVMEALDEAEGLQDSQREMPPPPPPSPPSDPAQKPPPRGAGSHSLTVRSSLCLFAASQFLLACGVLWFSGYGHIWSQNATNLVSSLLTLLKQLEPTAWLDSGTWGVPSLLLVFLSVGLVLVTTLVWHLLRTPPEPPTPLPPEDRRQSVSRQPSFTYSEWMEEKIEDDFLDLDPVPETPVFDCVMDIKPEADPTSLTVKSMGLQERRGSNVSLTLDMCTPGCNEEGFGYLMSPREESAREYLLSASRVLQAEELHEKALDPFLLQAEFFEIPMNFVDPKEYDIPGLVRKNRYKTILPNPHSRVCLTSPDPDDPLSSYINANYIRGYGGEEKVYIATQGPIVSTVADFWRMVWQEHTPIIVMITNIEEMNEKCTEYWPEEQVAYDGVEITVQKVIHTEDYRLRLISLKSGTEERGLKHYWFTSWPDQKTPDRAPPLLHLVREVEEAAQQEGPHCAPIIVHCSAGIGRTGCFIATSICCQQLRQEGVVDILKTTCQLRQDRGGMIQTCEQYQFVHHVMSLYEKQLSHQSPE
In words: Second order rate of inactivation of STEP. In kind it is biochemical. The conditions noted are these: no GSH added; quadruplicate, mean ± S.D.

The test system of experiment [1] is Alzheimer's disease (AD) mice. The conditions noted are these: novel object recognition and Morris water maze tests, ref [4]; cited from earlier work.
A further experiment deals with rat cortical neurons. The conditions noted are these: ref [4]; cited from earlier work.

Regarding `O=C(Nc1cc(C(F)(F)F)cc2c1SSSSS2)C(F)(F)F` [Compound 23], at STEP, the Kinact/Ki is 161,000 ± 26,000 M^-1S^-1.

`Cl.Nc1cc(C(F)(F)F)cc2c1SSSSS2` [TC-2153, 8-(trifluoromethyl)-1,2,3,4,5-benzopentathiepin-6-amine hydrochloride]: the cognitive deficits entry in experiment [1] is reported as “reduced cognitive deficits”. In addition, the “phosphorylation levels of STEP substrates GluN2B, Pyk2 and ERK1/2” value in the experiment on rat cortical neurons is recorded as “enhanced the phosphorylation levels”.

The record behind these values is publication PMC4334692 (Bioorganic & medicinal chemistry letters, 2015).
